Where a name gives a salt, the structure may show the parent alone.
Tested on: mongolian gerbils
Assay: gerbil social interaction model (time spent in active social interactions)
Assay type: in vivo
Details: one hour after administration
Experimental: Paroxetine hydrochloride hemihydrate (0.3 mg/kg p.o of the paroxetine measured as the free base.), 2-(S)-(4-Fluoro-2-methyl-phenyl)-piperazine-1-carboxylic acid [1-(R)-(3,5-bis-trifluoromethyl-phenyl)-ethyl]-methyl-amide methansulphonate (hereinafter compound A) (0.1 mg/kg i.p of the compound A measured as the free base) and a combination of paroxetine (0.3 mg/kg p.o. of the paroxetine measured as the free base) and compound A (0.1 mg/kg i.p. of the compound A measured as the free base) were administered independently in mongolian gerbils to assess the effect on time spent in active social interactions.
The results obtained one hour after administration, expressed as a percentage variation of the time spent in active social interactions by each animal in respect to the value obtained by treatment of control animals, are summarised in table 1.

| Compound | % variation of the time spent in active social interactions in respect to control animals (0.1 mg/kg i.p. (measured as the free base)) [%] | % variation of the time spent in active social interactions in respect to control animals (0.3 mg/kg p.o. (measured as the free base)) [%] |
| --- | --- | --- |
| CS(=O)(=O)O.Cc1cc(F)ccc1[C@H]1CNCCN1C(=O)N(C)[C@H](C)c1cc(C(F)(F)F)cc(C(F)(F)F)c1 [Compound A, 2-(S)-(4-Fluoro-2-methyl-phenyl)-piperazine-1-carboxylic acid [1-(R)-(3,5-bis-trifluoromethyl-phenyl)-ethyl]-methyl-amide methansulphonate] | −8 | – |
| Fc1ccc([C@@H]2CCNC[C@H]2COc2ccc3c(c2)OCO3)cc1 [Paroxetine hydrochloride hemihydrate, (−) trans-4-(4′-fluorophenyl)3-(3′-4′-methylenedioxyphenoxymethyl)piperidine] | – | −2 |
